Here are results for two compounds from patent US10137116B2, “Benzimidazole sulfide derivatives for the treatment or prevention of tuberculosis” (priority 2015, dated 2018).

≈ marks a conversion by molar mass, not a printed value. Entries after “also recorded” stand apart in the source; their conditions may differ.

One assay has as its system drug resistant isolates. Kind of assay: microbe, parasite or virus in culture. The class given is cell-based, M. tuberculosis. The following applies: Mycobacterium tuberculosis.
Assay [1] has as its system Mtb spontaneous-resistant mutants 1 to 3 / rMtb-L176P. Type of assay: cell-based, Mycobacterium tuberculosis.
The next assay deals with Mtb strains. Briefly: MIC, summary statement for Mtb strains. Type of assay: cell-based. As to conditions: Mycobacterium tuberculosis.
A further assay relates to M. tuberculosis MB3649. Briefly: microbe, parasite or virus in culture. As to conditions: Mycobacterium tuberculosis. Type of assay: cell-based.
The test system of the next assay is M. tuberculosis 59744. Kind of assay: microbe, parasite or virus in culture. The class given is cell-based. The following applies: Mycobacterium tuberculosis.
The test system of the next assay is M. tuberculosis 45776. Briefly: microbe, parasite or virus in culture. The class given is cell-based. The following applies: Mycobacterium tuberculosis.
The test system of a further assay is Mtb-T313A. The class given is cell-based, Mycobacterium tuberculosis.
The subject of another assay is M. tuberculosis 49975. Briefly: microbe, parasite or virus in culture. The class given is cell-based. The following applies: Mycobacterium tuberculosis.
A further assay concerns M. tuberculosis MI1020. Kind of assay: microbe, parasite or virus in culture. The class given is cell-based. The following applies: Mycobacterium tuberculosis.
The subject of a further assay is M. tuberculosis 43061. Briefly: microbe, parasite or virus in culture. The class given is cell-based. As to conditions: Mycobacterium tuberculosis.

For `Cc1c(OCC(F)(F)F)ccnc1CSc1nc2ccccc2[nH]1` [LPZS, Lanzoprazole sulfide], the MIC is less than 2 µM in the assay with drug resistant isolates; less than 2 µM with Mtb strains; 1.37 µM (≈ 0.484 µg/mL) against M. tuberculosis MB3649; 0.78 µM (≈ 0.276 µg/mL) in the assay with M. tuberculosis 59744; 0.52 µM (≈ 0.184 µg/mL) against M. tuberculosis 45776; 1.06 µM (≈ 0.375 µg/mL) against M. tuberculosis 49975. For the same compound, the MIC was 0.94 µM (≈ 0.332 µg/mL) with M. tuberculosis MI1020 and 0.49 µM (≈ 0.173 µg/mL) in the assay with M. tuberculosis 43061. In addition, the “resistance of mutants against compound” value in assay [1] was “stable phenotypic resistance”. Further, in the assay on Mtb-T313A, the “activity against T313A mutant” value is “active; also recorded: does not confer high level resistance”.
`CCc1nc2ccc(Cl)cn2c1C(=O)NCc1ccc(N2CCC(c3ccc(OC(F)(F)F)cc3)CC2)cc1` [Q203, reference compound]: the “activity against T313A mutant” value in the assay on Mtb-T313A is recorded as “resistant; also recorded: high level resistance”.
